Values joined by “and” are separate entries in the source; they are usually repeats but may differ in a detail not shown here. Equal entries are not always repeated.
Assays:
[1] = Pharmacokinetics in whole blood, Sprague-Dawley rats; details: for % Parent AUCAll: Sprague-Dawley rat, metabolite AUCall/Parent AUCall x 100; for Whole Blood Conc. of compound 1: Sprague-Dawley rats; for concentration at 0.167 h / concentration at 0.33 h: Sprague-Dawley, rat, in vivo, po, Whole Blood Conc. of compound 1, Sprague-Dawley rats
[2] = Pharmacokinetics in whole blood, CD-1 mice; details: for % Parent AUCAll: CD1 mouse, metabolite AUCall/Parent AUCall x 100; for Compound 1 Whole Blood Conc.: CD-1 mice, individual animals

SMILES: COC(=O)CCNC(=O)[C@@H]1OP(=O)(N[C@@H](C)C(=O)OC)OCC1(C)C (some centres unmarked) [Compound 1]
- % Parent AUCAll ([1]; 300 mg/kg PO): 39%
- % Parent AUCAll ([1]; 700 mg/kg PO): 22%
- Whole Blood Conc. of compound 1 ([1]; single 100 mg/kg RE-024-02 PO, time 0.5, LLOQ 0.60 ng/mL): BQL
- Whole Blood Conc. of compound 1 ([1]; single 100 mg/kg RE-024-02 PO, time 0.5, LLOQ 1.58 nM): BQL
- Whole Blood Conc. of compound 1 ([1]; single 100 mg/kg RE-024-02 PO, time 1, LLOQ 0.60 ng/mL): BQL
- Whole Blood Conc. of compound 1 ([1]; single 100 mg/kg RE-024-02 PO, time 1, LLOQ 1.58 nM): BQL
- Whole Blood Conc. of compound 1 ([1]; single 100 mg/kg RE-024-02 PO, time 2, LLOQ 0.60 ng/mL): BQL
- Whole Blood Conc. of compound 1 ([1]; single 100 mg/kg RE-024-02 PO, time 2, LLOQ 1.58 nM): BQL
- Whole Blood Conc. of compound 1 ([1]; single 100 mg/kg RE-024-02 PO, time 4, LLOQ 0.60 ng/mL): BQL
- Whole Blood Conc. of compound 1 ([1]; single 100 mg/kg RE-024-02 PO, time 4, LLOQ 1.58 nM): BQL
- Whole Blood Conc. of compound 1 ([1]; single 100 mg/kg RE-024-02 PO, time 8, LLOQ 0.60 ng/mL): BQL
- Whole Blood Conc. of compound 1 ([1]; single 100 mg/kg RE-024-02 PO, time 8, LLOQ 1.58 nM): BQL
- Whole Blood Conc. of compound 1 ([1]; single 300 mg/kg RE-024-02 PO, time 0.33, LLOQ 0.60 ng/mL, 300 mg/kg): 41.34 ng/mL and 21.6 ng/mL
- Whole Blood Conc. of compound 1 ([1]; single 300 mg/kg RE-024-02 PO, time 0.33, LLOQ 1.58 nM, 300 mg/kg): 108.7 nM and 56.79 nM
- Whole Blood Conc. of compound 1 ([1]; single 300 mg/kg RE-024-02 PO, time 2, LLOQ 0.60 ng/mL): BQL
- Whole Blood Conc. of compound 1 ([1]; single 300 mg/kg RE-024-02 PO, time 2, LLOQ 1.58 nM): BQL
- Whole Blood Conc. of compound 1 ([1]; single 300 mg/kg RE-024-02 PO, time 4, LLOQ 0.60 ng/mL): BQL
- Whole Blood Conc. of compound 1 ([1]; single 300 mg/kg RE-024-02 PO, time 4, LLOQ 1.58 nM): BQL
- Whole Blood Conc. of compound 1 ([1]; single 300 mg/kg RE-024-02 PO, time 8, LLOQ 0.60 ng/mL): BQL
- Whole Blood Conc. of compound 1 ([1]; single 300 mg/kg RE-024-02 PO, time 8, LLOQ 1.58 nM): BQL
- Whole Blood Conc. of compound 1 ([1]; single 700 mg/kg RE-024-02 PO, time 8, LLOQ 0.60 ng/mL): BQL
- Whole Blood Conc. of compound 1 ([1]; single 700 mg/kg RE-024-02 PO, time 8, LLOQ 1.58 nM): BQL
- concentration at 0.167 h ([1]; 100 mg/kg, single 100 mg/kg RE-024-02 PO, time 0.167, LLOQ 0.60 ng/mL): 3.88 ng/mL
- concentration at 0.167 h ([1]; 100 mg/kg, single 100 mg/kg RE-024-02 PO, time 0.167, LLOQ 1.58 nM): 10.2 nM
- concentration at 0.33 h ([1]; 100 mg/kg, single 100 mg/kg RE-024-02 PO, time 0.33, LLOQ 0.60 ng/mL): 1.21 ng/mL
- concentration at 0.33 h ([1]; 100 mg/kg, single 100 mg/kg RE-024-02 PO, time 0.33, LLOQ 1.58 nM): 3.18 nM
- concentration at 0.33 h ([1]; 300 mg/kg, single 300 mg/kg RE-024-02 PO, time 0.33, LLOQ 0.60 ng/mL): 22.6 ng/mL
- concentration at 0.33 h ([1]; 300 mg/kg, single 300 mg/kg RE-024-02 PO, time 0.33, LLOQ 1.58 nM): 59.3 nM
- % Parent AUCAll ([2]; 100 mg/kg PO): 129%
- % Parent AUCAll ([2]; 300 mg/kg PO): 307%
- % Parent AUCAll ([2]; 700 mg/kg PO): 257%
- Compound 1 Whole Blood Conc. ([2]; 100 mg/kg RE-024-02 by PO, 0.033 hr, LLOQ 0.6 ng/mL, 100 mg/kg): 4.6 ng/mL and 4 ng/mL and 74.4 ng/mL and 3.2 ng/mL
- Compound 1 Whole Blood Conc. ([2]; 100 mg/kg RE-024-02 by PO, 0.033 hr, LLOQ 1.6 nM, 100 mg/kg): 12.2 nM and 10.6 nM and 195.6 nM and 8.4 nM
- Compound 1 Whole Blood Conc. ([2]; 100 mg/kg RE-024-02 by PO, 0.083 hr, LLOQ 0.6 ng/mL, 100 mg/kg): BQL and 1 ng/mL
- Compound 1 Whole Blood Conc. ([2]; 100 mg/kg RE-024-02 by PO, 0.083 hr, LLOQ 1.6 nM, 100 mg/kg): BQL and 2.7 nM
- Compound 1 Whole Blood Conc. ([2]; 100 mg/kg RE-024-02 by PO, 0.167 hr, LLOQ 0.6 ng/mL, 100 mg/kg): 4.3 ng/mL and BQL and 10.8 ng/mL
- Compound 1 Whole Blood Conc. ([2]; 100 mg/kg RE-024-02 by PO, 0.167 hr, LLOQ 1.6 nM, 100 mg/kg): 11.4 nM and BQL and 28.4 nM
- Compound 1 Whole Blood Conc. ([2]; 100 mg/kg RE-024-02 by PO, 0.333 hr, LLOQ 0.6 ng/mL, 100 mg/kg): BQL
- Compound 1 Whole Blood Conc. ([2]; 100 mg/kg RE-024-02 by PO, 0.333 hr, LLOQ 1.6 nM, 100 mg/kg): BQL
- Compound 1 Whole Blood Conc. ([2]; 100 mg/kg RE-024-02 by PO, 0.5 hr, LLOQ 0.6 ng/mL): BQL
- Compound 1 Whole Blood Conc. ([2]; 100 mg/kg RE-024-02 by PO, 0.5 hr, LLOQ 1.6 nM): BQL
- Compound 1 Whole Blood Conc. ([2]; 100 mg/kg RE-024-02 by PO, 1 hr, LLOQ 0.6 ng/mL): BQL
- Compound 1 Whole Blood Conc. ([2]; 100 mg/kg RE-024-02 by PO, 1 hr, LLOQ 1.6 nM): BQL
- Compound 1 Whole Blood Conc. ([2]; 100 mg/kg RE-024-02 by PO, 2 hr, LLOQ 0.6 ng/mL): BQL
- Compound 1 Whole Blood Conc. ([2]; 100 mg/kg RE-024-02 by PO, 2 hr, LLOQ 1.6 nM): BQL
- Compound 1 Whole Blood Conc. ([2]; 100 mg/kg RE-024-02 by PO, 4 hr, LLOQ 0.6 ng/mL): BQL
- Compound 1 Whole Blood Conc. ([2]; 100 mg/kg RE-024-02 by PO, 4 hr, LLOQ 1.6 nM): BQL
- Compound 1 Whole Blood Conc. ([2]; 100 mg/kg RE-024-02 by PO, 8 hr, LLOQ 0.6 ng/mL): BQL
- Compound 1 Whole Blood Conc. ([2]; 100 mg/kg RE-024-02 by PO, 8 hr, LLOQ 1.6 nM): BQL
- Compound 1 Whole Blood Conc. ([2]; 300 mg/kg RE-024-02 by PO, 0.033 hr, LLOQ 0.6 ng/mL, 300 mg/kg): 8.7 ng/mL and 70.8 ng/mL and 52.7 ng/mL and 7.2 ng/mL
- Compound 1 Whole Blood Conc. ([2]; 300 mg/kg RE-024-02 by PO, 0.033 hr, LLOQ 1.6 nM, 300 mg/kg): 22.9 nM and 186.2 nM and 138.7 nM and 18.9 nM
- Compound 1 Whole Blood Conc. ([2]; 300 mg/kg RE-024-02 by PO, 0.083 hr, LLOQ 0.6 ng/mL, 300 mg/kg): 1.6 ng/mL and BQL and 16.9 ng/mL
- Compound 1 Whole Blood Conc. ([2]; 300 mg/kg RE-024-02 by PO, 0.083 hr, LLOQ 1.6 nM, 300 mg/kg): 4.2 nM and BQL and 44.3 nM
